Measurements as given in US20230255953A1, “USE OF ROLUPERIDONE IN PREVENTING RELAPSE IN SCHIZOPHRENIA PATIENTS” (Minerva Neurosciences, Inc., priority 2022, published 2023).

Tested on: patients with negative symptoms of schizophrenia
Assay: Integrated analysis of Studies #1 and #2 (pooled ITT): PANSS-derived scores (NSFS, total, positive and negative subscales), DB, OL and whole study
Assay type: in vivo, human
Set-up: key to NSFS Score change from Baseline, Median: change from Baseline in PANSS NSFS points; higher score = more severe
Details: pooled ITT; for NSFS Score change from Baseline, Median / PANSS Negative Subscale Score change from Baseline, Mean (SD) / PANSS Negative Subscale Score change from Baseline, Median / PANSS Total Score change from Baseline, Mean (SD) / PANSS Total Score change from Baseline, Median / PANSS Positive Subscale Score change from Baseline, Mean (SD) / PANSS Positive Subscale Score change from Baseline, Median / NSFS Score change from Baseline, Mean (SD): Roluperidone Total; for NSFS Score change from Baseline, Median / PANSS Negative Subscale Score change from Baseline, Mean (SD) / PANSS Negative Subscale Score change from Baseline, Median / PANSS Total Score change from Baseline, Mean (SD) / PANSS Total Score change from Baseline, Median / NSFS Score change from Baseline, Mean (SD): DB; for NSFS Change from Active BL to Week 24, Mean (SD) / NSFS Change from Active BL to Week 24, Median / NSFS Change from Active BL to Week 52, Mean (SD) / NSFS Change from Active BL to Week 52, Median / NSFS Change from Active BL to Week 54, Mean (SD) / NSFS Change from Active BL to Week 54, Median / NSFS Change from Open-label BL to Week 24, Mean (SD) / NSFS Change from Open-label BL to Week 24, Median / NSFS Change from Open-label BL to Week 52, Mean (SD) / NSFS Change from Open-label BL to Week 52, Median / NSFS Change from Open-label BL to Week 54, Mean (SD) / NSFS Change from Open-label BL to Week 54, Median / NSFS Change from Study BL to Week 24, Mean (SD) / NSFS Change from Study BL to Week 24, Median / NSFS Change from Study BL to Week 52, Mean (SD) / NSFS Change from Study BL to Week 52, Median / NSFS Change from Study BL to Week 54, Mean (SD) / NSFS Change from Study BL to Week 54, Median: Roluperidone at Any Time
Description: The primary integrated analysis of the efficacy of Roluperidone compared with placebo for the treatment of negative symptoms of schizophrenia is based on the change from Baseline in the PANSS Marder's negative symptoms factor score (in this document referred to as NSFS) to Week 12. Efficacy is also supported by the analysis of change from Baseline in the PSP Total score and the CGI-S to Week 12.
The PANSS was assessed at the time points described in Table 4.
The PANSS-derived endpoints used in these studies and the integrated analyses are described in Table 5A and a summary of the individual PANSS items used by physicians and clinicians to measure the severity of the symptoms in a schizophrenia patient is provided in Table 5B. The scale is divided into three parts, a positive scale, which provides a “PANSS positive subscore”, a negative scale, which provides a “PANSS negative subscore”, and general psychopathology scale. The sum of these three parts provides a PANSS total score, which ranges from 30 to 210 (where higher scores indicate more severe symptoms). (See Kay, S. R., et al. “The positive and negative syndrome scale (PANSS) for schizophrenia,” Schizophr Bulletin, 13(2), 261-276 (1987) and Gopal, S., et al. “Improvement of Negative Symptoms in Schizophrenia with Paliperidone Palmitate 1-Month and 3-Month Long-Acting Injectables: Results from a Phase 3 Non-Inferiority Study” Neuropsychiatric Disease and Treatment, 681-690, DOI: 10.2147/NDT.5226296, both of which are incorporated by reference.)
The Efficacy data from Study Nos. 1 and 2 were pooled. The majority of patients in the pooled ITT population completed the DB period (502 patients overall, 66.3%), with similar rates in each treatment group (placebo: 69.8%, 32 mg Roluperidone: 65.3%, and 64 mg Roluperidone: 63.8%) (Table 12). The majority (62.7%) of those who completed the DB period entered the OL period. The most common reason for discontinuation during the DB period among patients overall was withdrawal of consent (15.6%), followed by adverse events (7.3%) and lack of efficacy (5.4%) (Table 12). […] Approximately twice as many patients in the Roluperidone groups (32 mg: 8.5%; 64 mg: 9.1%) discontinued due to adverse events compared with patients in the placebo group (4.3%). More patients in the placebo group discontinued due to lack of efficacy (6.7%) than in the Roluperidone groups (32 mg: 4.4%; 64 mg: 5.1%). The low number of patients who discontinued due to lack of efficacy or withdrawal of consent probably reflects a low level of worsening of positive symptoms.
The integrated analysis supporting the efficacy of Roluperidone as a treatment for the negative symptoms of schizophrenia in adults is presented below.

## 1H-Isoindol-1-one,2-[ [1-[2-(4-fluorophenyl)-2-oxoethyl]-4-piperidinyl]methyl]-2,3-dihydro-, hydrochloride, hydrate (1:1:2) [Roluperidone]
Week 4
  NSFS Score change from Baseline, Median: −2.0
  PANSS Negative Subscale Score change from Baseline, Mean (SD): −2.5 (2.75)
  PANSS Negative Subscale Score change from Baseline, Median: −2.0
  PANSS Total Score change from Baseline, Mean (SD): −4.8 (7.13)
  PANSS Total Score change from Baseline, Median: −5.0
  PANSS Positive Subscale Score change from Baseline, Mean (SD): −0.4 (2.49)
  PANSS Positive Subscale Score change from Baseline, Median: 0.0
Week 8
  NSFS Score change from Baseline, Mean (SD): −3.4 (3.25)
  NSFS Score change from Baseline, Median: −3.0
  PANSS Negative Subscale Score change from Baseline, Mean (SD): −3.6 (3.38)
  PANSS Negative Subscale Score change from Baseline, Median: −3.0
  PANSS Total Score change from Baseline, Mean (SD): −6.5 (8.35)
  PANSS Total Score change from Baseline, Median: −6.0
  PANSS Positive Subscale Score change from Baseline, Mean (SD): −0.5 (2.55)
  PANSS Positive Subscale Score change from Baseline, Median: 0.0
Week 12
  NSFS Score change from Baseline, Mean (SD): −3.8 (3.39)
  NSFS Score change from Baseline, Median: −4.0
  PANSS Negative Subscale Score change from Baseline, Mean (SD): −4.0 (3.59)
  PANSS Negative Subscale Score change from Baseline, Median: −3.0
  PANSS Total Score change from Baseline, Mean (SD): −7.3 (8.66)
  PANSS Total Score change from Baseline, Median: −7.0
  PANSS Positive Subscale Score change from Baseline, Mean (SD): −0.6 (2.64)
  PANSS Positive Subscale Score change from Baseline, Median: 0.0
32 mg
  NSFS Change from Active BL to Week 24, Mean (SD): −3.7 (3.45)
  NSFS Change from Active BL to Week 24, Median: −4.0
  NSFS Change from Active BL to Week 52, Mean (SD): −5.7 (3.95)
  NSFS Change from Active BL to Week 52, Median: −5.0
  NSFS Change from Active BL to Week 54, Mean (SD): −5.7 (3.55)
  NSFS Change from Active BL to Week 54, Median: −6.0
  NSFS Change from Open-label BL to Week 24, Mean (SD): −1.4 (2.51)
  NSFS Change from Open-label BL to Week 24, Median: −1.0
  NSFS Change from Open-label BL to Week 52, Mean (SD): −3.3 (3.23)
  NSFS Change from Open-label BL to Week 52, Median: −3.0
  NSFS Change from Open-label BL to Week 54, Mean (SD): −3.3 (3.45)
  NSFS Change from Open-label BL to Week 54, Median: −3.0
  NSFS Change from Study BL to Week 24, Mean (SD): −4.9 (3.61)
  NSFS Change from Study BL to Week 24, Median: −5.0
  NSFS Change from Study BL to Week 52, Mean (SD): −6.9 (3.95)
  NSFS Change from Study BL to Week 52, Median: −6.0
  NSFS Change from Study BL to Week 54, Mean (SD): −6.8 (3.80)
  NSFS Change from Study BL to Week 54, Median: −6.0
64 mg
  NSFS Change from Active BL to Week 24, Mean (SD): −4.2 (3.92)
  NSFS Change from Active BL to Week 24, Median: −4.0
  NSFS Change from Active BL to Week 52, Mean (SD): −6.7 (4.23)
  NSFS Change from Active BL to Week 52, Median: −7.0
  NSFS Change from Active BL to Week 54, Mean (SD): −6.6 (4.40)
  NSFS Change from Active BL to Week 54, Median: −7.0
  NSFS Change from Open-label BL to Week 24, Mean (SD): −1.6 (3.02)
  NSFS Change from Open-label BL to Week 24, Median: −1.0
  NSFS Change from Open-label BL to Week 52, Mean (SD): −4.3 (3.77)
  NSFS Change from Open-label BL to Week 52, Median: −4.0
  NSFS Change from Open-label BL to Week 54, Mean (SD): −4.0 (3.88)
  NSFS Change from Open-label BL to Week 54, Median: −4.0
  NSFS Change from Study BL to Week 24, Mean (SD): −5.0 (3.49)
  NSFS Change from Study BL to Week 24, Median: −5.0
  NSFS Change from Study BL to Week 52, Mean (SD): −7.5 (3.61)
  NSFS Change from Study BL to Week 52, Median: −7.0
  NSFS Change from Study BL to Week 54, Mean (SD): −7.4 (3.81)
  NSFS Change from Study BL to Week 54, Median: −7.0
Total
  NSFS Change from Active BL to Week 24, Mean (SD): −5.1 (3.52)
  NSFS Change from Active BL to Week 24, Median: −5.0
  NSFS Change from Active BL to Week 52, Mean (SD): −7.0 (3.84)
  NSFS Change from Active BL to Week 52, Median: −6.0
  NSFS Change from Active BL to Week 54, Mean (SD): −7.0 (3.56)
  NSFS Change from Active BL to Week 54, Median: −7.0
  NSFS Change from Open-label BL to Week 24, Mean (SD): −1.3 (2.56)
  NSFS Change from Open-label BL to Week 24, Median: −1.0
  NSFS Change from Open-label BL to Week 52, Mean (SD): −3.2 (2.99)
  NSFS Change from Open-label BL to Week 52, Median: −3.0
  NSFS Change from Open-label BL to Week 54, Mean (SD): −3.2 (3.29)
  NSFS Change from Open-label BL to Week 54, Median: −3.0
  NSFS Change from Study BL to Week 24, Mean (SD): −5.1 (3.52)
  NSFS Change from Study BL to Week 24, Median: −5.0
  NSFS Change from Study BL to Week 52, Mean (SD): −7.0 (3.84)
  NSFS Change from Study BL to Week 52, Median: −6.0
  NSFS Change from Study BL to Week 54, Mean (SD): −7.0 (3.56)
  NSFS Change from Study BL to Week 54, Median: −7.0
